# Measured values reported in paper PMC10484737 (Nucleic Acids Research, 2023).
# “Also recorded” adds a separate entry of the source.
# T1: TsaN^749−1008 (TcdA domain of TsaN) (Pandoravirus salinus, UniProt A0A291ATS8)
# T1 sequence (A0A291ATS8 749-1008): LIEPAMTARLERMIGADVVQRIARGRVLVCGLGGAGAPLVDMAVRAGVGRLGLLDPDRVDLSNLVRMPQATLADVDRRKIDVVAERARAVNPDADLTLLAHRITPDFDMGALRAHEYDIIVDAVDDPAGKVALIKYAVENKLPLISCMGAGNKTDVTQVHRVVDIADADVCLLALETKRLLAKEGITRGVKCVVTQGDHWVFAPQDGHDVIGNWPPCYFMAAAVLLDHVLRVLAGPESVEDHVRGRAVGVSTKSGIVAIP
# T2: TsaN^1−392 (TsaD domain of TsaN) (Pandoravirus salinus, UniProt A0A291ATS8)
# T2 sequence (A0A291ATS8 1-392): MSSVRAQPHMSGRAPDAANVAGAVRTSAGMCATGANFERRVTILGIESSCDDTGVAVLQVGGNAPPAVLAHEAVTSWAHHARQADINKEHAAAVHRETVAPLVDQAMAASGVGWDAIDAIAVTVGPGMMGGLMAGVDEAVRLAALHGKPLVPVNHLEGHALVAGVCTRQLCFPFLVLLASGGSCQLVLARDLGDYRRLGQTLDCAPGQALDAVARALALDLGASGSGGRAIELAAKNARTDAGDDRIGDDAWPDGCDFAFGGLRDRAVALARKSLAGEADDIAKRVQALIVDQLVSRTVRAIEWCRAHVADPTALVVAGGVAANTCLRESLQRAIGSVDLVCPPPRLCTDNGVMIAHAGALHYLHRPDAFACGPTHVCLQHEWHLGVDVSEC
# T3: TsaN (Pandoravirus salinus, UniProt A0A291ATS8)
# T3 sequence (A0A291ATS8 1-1008): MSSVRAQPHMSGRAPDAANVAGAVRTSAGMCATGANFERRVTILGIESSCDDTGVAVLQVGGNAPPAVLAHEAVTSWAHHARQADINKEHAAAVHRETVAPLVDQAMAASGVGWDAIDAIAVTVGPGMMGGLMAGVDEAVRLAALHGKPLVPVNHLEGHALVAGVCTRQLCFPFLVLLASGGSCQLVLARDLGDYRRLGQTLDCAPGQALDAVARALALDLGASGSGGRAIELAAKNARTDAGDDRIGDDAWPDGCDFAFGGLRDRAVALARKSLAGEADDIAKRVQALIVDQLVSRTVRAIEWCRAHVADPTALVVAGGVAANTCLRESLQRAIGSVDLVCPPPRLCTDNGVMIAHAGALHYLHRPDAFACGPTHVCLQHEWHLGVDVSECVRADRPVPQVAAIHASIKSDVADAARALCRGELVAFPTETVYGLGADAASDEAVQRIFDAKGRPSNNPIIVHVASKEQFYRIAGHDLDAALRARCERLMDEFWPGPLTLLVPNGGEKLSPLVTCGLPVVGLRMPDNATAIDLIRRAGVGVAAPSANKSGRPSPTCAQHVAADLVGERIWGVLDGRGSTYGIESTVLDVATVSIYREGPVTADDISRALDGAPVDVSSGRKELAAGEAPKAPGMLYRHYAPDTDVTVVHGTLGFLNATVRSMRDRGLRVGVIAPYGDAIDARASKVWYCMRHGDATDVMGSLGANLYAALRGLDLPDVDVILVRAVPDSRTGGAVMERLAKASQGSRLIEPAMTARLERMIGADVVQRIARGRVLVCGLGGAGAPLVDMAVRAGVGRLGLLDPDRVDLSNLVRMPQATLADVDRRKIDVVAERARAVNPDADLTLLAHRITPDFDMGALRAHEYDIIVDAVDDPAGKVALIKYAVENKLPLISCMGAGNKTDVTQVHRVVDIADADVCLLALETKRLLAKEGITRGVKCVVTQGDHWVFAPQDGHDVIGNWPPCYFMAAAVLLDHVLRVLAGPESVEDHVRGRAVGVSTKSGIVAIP
# Legend:
# [1] = target: Pandoravirus salinus TsaN (TsaD-TsaC-SUA5-TcdA modular protein), full length (Pandoravirus salinus); assay: SEC
# [2] = target: Pandoravirus salinus TsaN (TsaD-TsaC-SUA5-TcdA modular protein), full length (Pandoravirus salinus); assay: SEC-MALS
# [3] = target: T1, TsaN^749−1008 (TcdA domain of TsaN); assay: ITC, ligand binding to the TcdA domain; set-up: species or system P. salinus
# [4] = tested on: TsaN^749−1008; assay: Enzymatic assay of ct^6A, LC–MS; type: biochemical, P. salinus; settings: for ct^6A formation from synthetic t^6A in the presence of the nucleotide (ct^6A/t^6A): TsaN^749−1008 and synthetic t^6A plus ATP, AMPCPP, AMP or AMP + PPi
# [5] = target: T2, TsaN^1−392 (TsaD domain of TsaN); assay: ITC, nucleotide binding to the TsaD domain; set-up: species or system P. salinus; settings: for ΔG / ΔH: 30 μM TsaN^1−392 titrated with 360 μM ligand
# [6] = target: TsaN^(1−392)H155A/H159A; assay: ITC, ATP binding to the TsaD domain variant; set-up: species or system P. salinus; settings: 30 μM TsaN^(1−392)H155A/H159A titrated with 360 μM ligand
# [7] = tested on: TsaN^H155A/H159A; assay: NADH-coupled ATPase assay; type: biochemical, P. salinus; settings: 5 μM TsaN^H155A/H159A
# [8] = target: T3, TsaN; assay: Effect of divalent metal ions on biosynthesis of t^6ADP and t^6ATP; type: biochemical, P. salinus; settings: pre-bound metals removed by dialysis with EDTA
# [9] = target: TsaN^749-1008 (TcdA domain of P. salinus TsaN) (Pandoravirus salinus); assay: SEC-MALS
# [10] = substrate: Nc1ncnc2c1ncn2[C@@H]1O[C@H](COP(=O)(O)OP(=O)(O)OP(=O)(O)O)[C@@H](O)[C@H]1O; assay: NADH-coupled ATPase assay; type: biochemical, P. salinus; settings: 25°C, pH 7.5
# [11] = 30 μM TsaN^749−1008, 360 μM ligand, in the presence of 100 μM synthetic t^6A
# [12] = 30 μM TsaN^749−1008 titrated with 360 μM ligand
# [13] = other: 5 μM TsaN^1−392, varying ATP
Molecule,ΔG [5],ΔH [5],"K D [3, 12]","N (sites) [3, 12]","ΔG [3, 12]","ΔH [3, 12]",other results
"Pandoravirus salinus TsaN (TsaD-TsaC-SUA5-TcdA modular protein), full length (enzyme)",,,,,,,stoichiometry N [1]: 2; stoichiometry N [2]: 2
Nc1ncnc2c1ncn2[C@@H]1O[C@H](COP(=O)(O)CP(=O)(O)OP(=O)(O)O)[C@@H](O)[C@H]1O [AMPCPP],,,,,,,"K D [3, 11]: not observed a binding signal; also recorded: No binding; N (sites) [3, 11]: No binding; ΔG [3, 11]: No binding; ΔH [3, 11]: No binding; ct^6A formation from synthetic t^6A in the presence of the nucleotide (ct^6A/t^6A) [4]: not observed the formation of ct^6A"
Nc1ncnc2c1ncn2[C@@H]1O[C@H](COP(=O)(O)O)[C@@H](O)[C@H]1O [AMP],-6.49 kcal/mol,-4.74 ± 1.46 kcal/mol,not able to determine the binding; also recorded: No binding,No binding,No binding,No binding,ct^6A formation from synthetic t^6A in the presence of the nucleotide (ct^6A/t^6A) [4]: not observed the formation of ct^6A
Nc1ncnc2c1ncn2[C@@H]1O[C@H](COP(=O)(O)OP(=O)(O)OP(=O)(O)O)[C@@H](O)[C@H]1O [ATP],,,not able to determine the binding; also recorded: No binding,No binding,No binding,No binding,"K D [6]: does not bind; also recorded: No binding; production of ADP in the ATPase assay [7]: not detected; ct^6A formation from synthetic t^6A in the presence of the nucleotide (ct^6A/t^6A) [4]: efficient conversion of t^6A to ct^6A; ATP hydrolysis ([4]; in the absence of synthetic t^6A, data not shown): not hydrolyzed"
[Cl][Mn][Cl] [MnCl2],,,,,,,effect of divalent metal ion on catalytic activity of TsaN (t^6A/A) [8]: stimulated the catalytic activity
TsaN^749-1008 (TcdA domain of P. salinus TsaN) (domain or fragment),,,,,,,stoichiometry N [9]: 2
"Nc1ncnc2c1ncn2[C@@H]1O[C@H](CO)[C@@H](O)[C@H]1O [A, adenosine]",No binding,No binding,not able to determine the binding; also recorded: No binding,No binding,No binding,No binding,
Nc1ncnc2c1ncn2[C@@H]1O[C@H](CO[P@](=O)(O)O[P@](=O)(O)O[P@@](=O)(O)S)[C@@H](O)[C@H]1O [ATPγS],-6.77 kcal/mol,-6.02 ± 2.38 kcal/mol,,,,,Kd [5]: 10.9 ± 8.91 µM
Nc1ncnc2c1ncn2[C@@H]1O[C@H](COP(=O)(O)OP(=O)(O)O)[C@@H](O)[C@H]1O [ADP],-7.05 kcal/mol,-2.74 ± 0.62 kcal/mol,not able to determine the binding; also recorded: No binding,No binding,No binding,No binding,"ITC binding to AMP-bound TsaN^1-392 ([5]; 30 μM AMP-bound TsaN^1-392 titrated with 360 μM ADP, data not shown): no binding curves"
TsaN (Pandoravirus salinus) (protein) MSSVRAQPHMSGRAPDAANVAGAVRTSAGMCATGANFERRVTILGIESSCDDTGVAVLQVGGNAPPAVLAHEAVTSWAHHARQADINKEHAAAVHRETVAPLVDQAMAASGVGWDAIDAIAVTVGPGMMGGLMAGVDEAVRLAALHGKPLVPVNHLEGHALVAGVCTRQLCFPFLVLLASGGSCQLVLARDLGDYRRLGQTLDCAPGQALDAVARALALDLGASGSGGRAIELAAKNARTDAGDDRIGDDAWPDGCDFAFGGLRDRAVALARKSLAGEADDIAKRVQALIVDQLVSRTVRAIEWCRAHVADPTALVVAGGVAANTCLRESLQRAIGSVDLVCPPPRLCTDNGVMIAHAGALHYLHRPDAFACGPTHVCLQHEWHLGVDVSECVRADRPVPQVAAIHASIKSDVADAARALCRGELVAFPTETVYGLGADAASDEAVQRIFDAKGRPSNNPIIVHVASKEQFYRIAGHDLDAALRARCERLMDEFWPGPLTLLVPNGGEKLSPLVTCGLPVVGLRMPDNATAIDLIRRAGVGVAAPSANKSGRPSPTCAQHVAADLVGERIWGVLDGRGSTYGIESTVLDVATVSIYREGPVTADDISRALDGAPVDVSSGRKELAAGEAPKAPGMLYRHYAPDTDVTVVHGTLGFLNATVRSMRDRGLRVGVIAPYGDAIDARASKVWYCMRHGDATDVMGSLGANLYAALRGLDLPDVDVILVRAVPDSRTGGAVMERLAKASQGSRLIEPAMTARLERMIGADVVQRIARGRVLVCGLGGAGAPLVDMAVRAGVGRLGLLDPDRVDLSNLVRMPQATLADVDRRKIDVVAERARAVNPDADLTLLAHRITPDFDMGALRAHEYDIIVDAVDDPAGKVALIKYAVENKLPLISCMGAGNKTDVTQVHRVVDIADADVCLLALETKRLLAKEGITRGVKCVVTQGDHWVFAPQDGHDVIGNWPPCYFMAAAVLLDHVLRVLAGPESVEDHVRGRAVGVSTKSGIVAIP,,,,,,,"Km ([10]; other: 5 μM TsaN, varying ATP): 40 µM; Vmax ([10]; other: 5 μM TsaN, varying ATP): 0.015 µM/s"
TsaN^1−392 (Pandoravirus salinus) (protein) MSSVRAQPHMSGRAPDAANVAGAVRTSAGMCATGANFERRVTILGIESSCDDTGVAVLQVGGNAPPAVLAHEAVTSWAHHARQADINKEHAAAVHRETVAPLVDQAMAASGVGWDAIDAIAVTVGPGMMGGLMAGVDEAVRLAALHGKPLVPVNHLEGHALVAGVCTRQLCFPFLVLLASGGSCQLVLARDLGDYRRLGQTLDCAPGQALDAVARALALDLGASGSGGRAIELAAKNARTDAGDDRIGDDAWPDGCDFAFGGLRDRAVALARKSLAGEADDIAKRVQALIVDQLVSRTVRAIEWCRAHVADPTALVVAGGVAANTCLRESLQRAIGSVDLVCPPPRLCTDNGVMIAHAGALHYLHRPDAFACGPTHVCLQHEWHLGVDVSEC,,,,,,,"Km [10, 13]: 40 µM; Vmax [10, 13]: 0.015 µM/s"
